Assay results: US20170202792A1, “METHOD FOR TREATING TAU-ASSOCIATED DISEASES” (NATIONAL TAIWAN NORMAL UNIVERSITY, priority 2016, published 2017)

Test system: SH-SY5Y tauRD-DsRed cells
Test: Neurite outgrowth in SH-SY5Y tauRD-DsRed cells (TUBB3 staining)
Assay type: cell-based, human
Conditions: 10 μM, pre-treated 8 hours, doxycycline 7 days; untreated = 100%
Experimental: We used SH-SY5Y human cells expressing a DsRed-tagged proaggregation mutant (ΔK280) of the C-terminal repeat domain of tau (tauRD-Gln^244-Glu^372 of the longest tau^441 isoform). The recombinant tauRD-DsRed construct was under the control of a tetracycline-regulated, hybrid human cytomegalovirus (CMV)/TetO2 promoter that can be induced by adding doxycycline. The cell lines were grown in medium containing blasticidin (5 μg/mL) and hygromycin (100 μg/mL).
SH-SY5Y tauRD-DsRed cells were seeded in 6-well plates (1×10^5/well) in a medium containing all-trans retinoic acid (10 μM, Sigma). After 48 hours of incubation, cells were pre-treated with 10 μM Congo red and 10 μM compound (I) for 8 hours; after which, tauRD-DsRed expression was induced with 1μg/mL doxycycline for 7 days. The cells were then fixed in 4% paraformaldehyde, permeabilized with 0.1% Triton X-100, blocked in 3% BSA, and then stained with the primary antibody anti-TUBB3 (against neuronal Class III β-tubulin) (1:1000; Covance) and with a secondary anti-rabbit Alexa Fluor® 555 antibody (1:500; Molecular Probes). Nuclei were counterstained with 4′,6-diamidino-2-phenylindole (DAPI). The total outgrowth in the untreated, Congo red-treated, and compound (I)-treated cells was assessed using MetaXpress image acquisition and analysis software.

## Nc1c(/N=N/c2ccc(-c3ccc(/N=N/c4cc(S(=O)(=O)O)c5ccccc5c4N)cc3)cc2)cc(S(=O)(=O)O)c2ccccc12 [Congo red, reference compound]
  neurite growth relative to untreated cells: 110%
